Measured values from US11738019B2, “Substituted heterocycles as antiviral agents” (ENANTA PHARMACEUTICALS, INC., priority 2019, dated 2023).

Tests used:
HBV (2.2.15 cells) = assay: HBV viral product reduction in 2.2.15 cells (qPCR / HBsAg or HBeAg ELISA); format: cell-based; conditions: Hepatitis B virus, 120 h, day 5 post treatment, concentration reducing viral product accumulation in cell lysates or supernatants by 50% relative to no drug controls
Method: 2.2.15 cells are passaged upon attaining confluency in DMEM/F12 media in the presence of 10% FBS, Penn/Strep, and 250 ug/mL G418. Novel compounds are 5 fold serially diluted in DMSO and added to 96 well plates containing 35,000 cells/well at a 1:200 dilution so that the final concentration of DMSO is 0.5%. On day 5, post treatment cell lysates and supernatants are harvested for analysis.
Cells are lysed using Agilent Sidestep Lysis buffer, diluted 1:100 and quantified via quantitative real time PCR. Commercially available ELISA kits are used to quantitate the viral proteins HBsAg (Alpco) or HBeAg (US Biological) by following the manufacturer's recommended protocol after diluting samples to match the linear range of their respective assays. Irrespective of readout, compound concentrations that reduce viral product accumulation in the cell lysates or supernatants by 50% relative to no drug controls (EC50) are reported; EC50 ranges are as follows: A<0.1 μM; B 0.1-1 μM; C>1 μM.

[1] = compound induced cellular toxicity in HepG2 cells (ATPlite 1Step); format: cell-based; conditions: human, three days, concentration reducing total ATP levels by 50% relative to no drug controls
Method: At day 3, post seeding cells are treated with ATPlite 1Step according to the manufacturer's instructions.

Row | SMILES | EC50 (HBV (2.2.15 cells)) [µM] | CC50 at 3 days [1] [µM]
1 | CC(C)(C)[C@@H]1Cc2c(cc(N3CCC(F)(F)C3)c3ccoc23)-c2cc(=O)c(C(=O)O)cn21 [Example 19, (S)-5-(tert-butyl)-12-(3,3-difluoropyrrolidin-1-yl)-9-oxo-4,9-dihydro-5H-furo[2,3-f]pyrido[2,1-a]isoquinoline-8-carboxylic acid] | < 0.1 | 10 to 25
2 | CC(C)(C)[C@@H]1Cc2c(cc(-c3ccoc3)c3ccoc23)-c2cc(=O)c(C(=O)O)cn21 [Example 3, (S)-5-(tert-butyl)-12-(furan-3-yl)-9-oxo-4,9-dihydro-5H-furo[2,3-f]pyrido[2,1-a]isoquinoline-8-carboxylic acid] | < 0.1 | > 25
3 | CC(C)(C)[C@@H]1Cc2c(cc(Cl)c3occc23)-c2cc(=O)c(C(=O)O)cn21 [Example 1, (S)-5-(tert-butyl)-12-chloro-9-oxo-4,9-dihydro-5H-furo[3,2-f]pyrido[2,1-a]isoquinoline-8-carboxylic acid] | < 0.1 | > 25
